This is an account of results in patent US9469615B2, “Quinoxalines and AZA-quinoxalines as CRTH2 receptor modulators” (Merck Sharp & Dohme Corp., priority 2010, dated 2016).

This test addresses T1, hCRTH2 (Homo sapiens, UniProt Q9Y5Y4).
T1 construct: expressed in transfected cells; host or cells: HEK (human embryonic kidney) cells expressing hCRTH2; membrane preparation
T1 sequence (Q9Y5Y4 1-395): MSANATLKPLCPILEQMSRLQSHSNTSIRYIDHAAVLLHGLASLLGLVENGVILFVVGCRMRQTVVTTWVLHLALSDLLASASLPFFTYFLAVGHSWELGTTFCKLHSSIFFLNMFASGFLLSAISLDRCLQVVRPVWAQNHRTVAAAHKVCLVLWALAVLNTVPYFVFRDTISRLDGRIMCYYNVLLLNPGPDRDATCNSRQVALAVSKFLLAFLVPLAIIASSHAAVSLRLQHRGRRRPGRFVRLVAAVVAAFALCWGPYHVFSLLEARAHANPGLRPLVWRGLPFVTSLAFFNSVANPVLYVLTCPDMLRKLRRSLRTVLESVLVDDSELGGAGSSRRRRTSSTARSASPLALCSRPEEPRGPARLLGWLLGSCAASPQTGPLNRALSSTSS
Nature of the test: Radioligand binding assay ([3H]PGD2 competition, HEK-hCRTH2 membranes). The conditions noted are these: [3H]PGD2 competition, Table B. Put shortly: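 Displacement of 3.0 nM [3H]PGD2 from human CRTH2 expressed in HEK membranes was measured at room temperature over 60 min. Unlabelled PGD2 at 10 μM gave non-specific binding.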
On to `Cc1cnccc1N1CCN(C(=O)c2ccc3nc(-c4ccc(Cl)cc4)c(CCCCC(=O)O)nc3c2)CC1` [compound 683, 5-(3-(4-chlorophenyl)-7-(4-(3-methylpyridin-4-yl)piperazine-1-carbonyl)quinoxalin-2-yl)pentanoic acid], for which the Ki – broadly, the dissociation constant of the complex between target and ligand, obtained from inhibition or displacement – was in the range of 0.0021 to 0.02 µM.

Take `Cc1cc(N2CCN(C(=O)c3ccc4nc(-c5ccc(Cl)cc5)c(CCCCC(=O)O)nc4c3)CC2)sn1` [compound 684, 5-(3-(4-chlorophenyl)-7-(4-(3-methylisothiazol-5-yl)piperazine-1-carbonyl)quinoxalin-2-yl)pentanoic acid]: the inhibition constant (Ki) was in the range of 0.0021 to 0.02 µM. For `O=C(O)CCCCc1nc2cc(C(=O)N3CCN(c4nnc(C5CC5)o4)CC3)ccc2nc1-c1ccc(Cl)cc1` [compound 685, 5-(3-(4-chlorophenyl)-7-(4-(5-cyclopropyl-1,3,4-oxadiazo1-2-yl)piperazine-1-carbonyl)quinoxalin-2-yl)pentanoic acid], the Ki fell in the range of 0.0201 to 0.2 µM. The value for `O=C(O)CCCCc1nc2cc(C(=O)N3C[C@@H]4C[C@H]3CN4Cc3ccccc3)ccc2nc1-c1ccc(Cl)cc1` [compound 686, 5-(7-((1S,4S)-5-benzyl-2,5-diazabicyclo[2.2.1]heptane-2-carbonyl)-3-(4-chlorophenyl)quinoxalin-2-yl)pentanoic acid] was 0.0201 to 0.2 µM; that for `O=C(O)CCCCc1nc2cc(C(=O)N[C@H](CO)c3ccc(F)cc3)ccc2nc1-c1ccc(Cl)cc1` [compound 687, (S)-5-(3-(4-chlorophenyl)-7-((1-(4-fluorophenyl)-2-hydroxyethyl)carbamoyl)quinoxalin-2-yl) pentanoic acid] was 0.0021 to 0.02 µM; that for `O=C(O)CCCCc1nc2cc(C(=O)N[C@H](CO)c3ccc(F)cc3)ccc2nc1-c1ccccc1` [compound 688, (S)-5-(7-((1-(4-fluorophenyl)-2-hydroxyethyl)carbamoyl)-3-phenylquinoxalin-2-yl)pentanoic acid] was 0.0201 to 0.2 µM. The value for `O=C(O)CCCCc1nc2cc(C(=O)N3CCC(O)(c4ccccc4)C3)ccc2nc1-c1ccc(Cl)cc1` (centres unmarked) [compound 689, 5-(3-(4-chlorophenyl)-7-(3-hydroxy-3-phenylpyrrolidine-1-carbonyl)quinoxalin-2-yl)pentanoic acid] was 0.0021 to 0.02 µM. `O=C(O)CCCCc1nc2cc(C(=O)N3CC4CC4(c4ccccc4)C3)ccc2nc1-c1ccc(Cl)cc1` (centres unmarked) [compound 690, 5-(3-(4-chlorophenyl)-7-(1-phenyl-3-azabicyclo[3.1.0]hexane-3-carbonyl)quinoxalin-2-yl)pentanoic acid]: the Ki was in the range of 0.0021 to 0.02 µM. `O=C(O)CCCCc1nc2cc(C(=O)NC3CC(=O)Nc4ccccc43)ccc2nc1-c1ccc(Cl)cc1` (centres unmarked) [compound 691, 5-(3-(4-chlorophenyl)-7-((2-oxo-1,2,3,4-tetrahydroquinolin-4-yl)carbamoyl)quinoxalin-2-yl)pentanoic acid] returned an inhibitory constant (Ki) of 0.0021 to 0.02 µM. With `O=C(O)CCCCc1nc2cc(C(=O)N[C@H]3CCOc4cc(C(F)(F)F)ccc43)ccc2nc1-c1ccc(Cl)cc1` [compound 692, (S)-5-(3-(4-chlorophenyl)-7-((7-(trifluoromethyl)chroman-4-yl)carbamoyl)quinoxalin-2-yl)pentanoic acid], the Ki fell in the range of 0.0021 to 0.02 µM.

The compound `CC(C)(NC(=O)c1ccc2nc(-c3ccc(Cl)cc3)c(CCCCC(=O)O)nc2c1)c1ccc(F)cc1` [compound 693, 5-(3-(4-chlorophenyl)-7-((2-(4-fluorophenyl)propan-2-yl)carbamoyl)quinoxalin-2-yl)pentanoic acid] displayed a Ki of 0.0021 to 0.02 µM. The value for `O=C(O)CCCCc1nc2cc(C(=O)NC3CCOc4c(F)cc(F)cc43)ccc2nc1-c1ccc(Cl)cc1` (centres unmarked) [compound 694, 5-(3-(4-chlorophenyl)-7-((6,8-difluorochroman-4-yl)carbamoyl)quinoxalin-2-yl)pentanoic acid] was 0.0021 to 0.02 µM.

`CN1C(=O)c2ccccc2C12CCN(C(=O)c1ccc3nc(-c4ccc(Cl)cc4)c(CCCCC(=O)O)nc3c1)CC2` [compound 695, 5-(3-(4-chlorophenyl)-7-(2-methyl-3-oxospiro[isoindoline-1,4′-piperidin]-1′-ylcarbonyl)quinoxalin-2-yl)pentanoic acid] gave an inhibition constant (Ki) of 0.0021 to 0.02 µM. In the case of `CC1(C)Oc2ccccc2C(NC(=O)c2ccc3nc(-c4ccc(Cl)cc4)c(CCCCC(=O)O)nc3c2)C1O` (centres unmarked) [compound 696, 5-(3-(4-chlorophenyl)-7-((3-hydroxy-2,2-dimethylchroman-4-yl)carbamoyl)quinoxalin-2-yl)pentanoic acid], the Ki lay in the range of 0.0021 to 0.02 µM. For `CS(=O)(=O)c1ccccc1N1CCN(C(=O)c2ccc3nc(-c4ccc(Cl)cc4)c(CCCCC(=O)O)nc3c2)CC1` [compound 697, 5-(3-(4-chlorophenyl)-7-(4-(2-(methylsulfonyl)phenyl)piperazine-1-carbonyl)quinoxalin-2-yl)pentanoic acid], the Ki was 0.0021 to 0.02 µM. The value for `O=C(O)CCCCc1nc2cc(C(=O)N3C[C@H]4CC[C@@H]3CN4Cc3ccccc3)ccc2nc1-c1ccc(Cl)cc1` [compound 698, 5-(7-((1R,4R)-5-benzyl-2,5-diazabicyc1o[2.2.2]octane-2-carbonyl)-3-(4-chlorophenyl)quinoxalin-2-yl)pentanoic acid] was 0.0021 to 0.02 µM; that for `O=C(O)CCCCc1nc2cc(C(=O)N3C[C@H]4C[C@@H]3CN4C(=O)OCc3ccccc3)ccc2nc1-c1ccc(Cl)cc1` [compound 699, 5-(7-((1R,4R)-5-((benzyloxy)carbonyl)-2,5-diazabicyclo[2.2.1]heptane-2-carbonyl)-3-(4-chlorophenyl)quinoxalin-2-yl)pentanoic acid] was 0.0021 to 0.02 µM; that for `Cc1nc(N2CCN(C(=O)c3ccc4nc(-c5ccc(Cl)cc5)c(CCCCC(=O)O)nc4c3)CC2)cn1C` [compound 700, 5-(3-(4-chlorophenyl)-7-(4-(1,2-dimethyl-1H-imidazol-4-yl)piperazine-1-carbonyl)quinoxalin-2-yl)pentanoic acid] was 0.0201 to 0.2 µM.

Take `O=C(O)CCCCc1nc2cc(C(=O)N3CCN(c4nc5ccccc5o4)CC3)ccc2nc1-c1ccc(Cl)cc1` [compound 701, 5-(7-(4-(benzo[d]oxazol-2-yl)piperazine-1-carbonyl)-3-(4-chlorophenyl)quinoxalin-2-yl)pentanoic acid]: the Ki was in the range of 0.0021 to 0.02 µM. The value for `O=C(O)CCCCc1nc2cc(C(=O)N3[C@@H]4CC[C@H]3CN(Cc3ccccc3)C4)ccc2nc1-c1ccc(Cl)cc1` [compound 702] was 0.0021 to 0.02 µM; that for `Cc1cc(N2CCN(C(=O)c3ccc4nc(-c5ccc(Cl)cc5)c(CCCCC(=O)O)nc4c3)CC2)cc(C)n1` [compound 703, 5-(3-(4-chlorophenyl)-7-(4-(2,6-dimethylpyridin-4-yl)piperazine-1-carbonyl)quinoxalin-2-yl)pentanoic acid] was 0.201 to 0.7 µM; that for `O=C(O)CCCCc1nc2cc(C(=O)N3C[C@H]4CC[C@@H](C3)N4Cc3ccccc3)ccc2nc1-c1ccc(Cl)cc1` [compound 704, 5-(7-((1R,5S)-8-benzyl-3,8-diazabicyclo[3.2.1]octane-3-carbonyl)-3-(4-chlorophenyl)quinoxalin-2-yl)pentanoic acid] was 0.0021 to 0.02 µM. Regarding `O=C(O)CCCCc1nc2cc(C(=O)N3CCn4ccnc4C3)ccc2nc1-c1ccc(Cl)cc1` [compound 705, 5-(3-(4-chlorophenyl)-7-(5,6,7,8-tetrahydroimidazo[1,2-a]pyrazine-7-carbonyl)quinoxalin-2-yl)pentanoic acid], the inhibitory constant (Ki) lay within 0.201 to 0.7 µM.
